Like-named read-outs stand apart in the source and are kept apart here.
Key:
WT hDAT [1] = biological target: T1, WT hDAT (Homo sapiens, UniProt Q01959); test: Kinetic analysis of [3H]DA uptake in the presence or absence of PMA or BIM; format: cell-based; conditions: 30 min preincubation
T1 construct: Synthetic cDNA encoding hDAT subcloned into pcDNA3.1+; expressed in transfected cells; host or cells: PC12 cells (ATCC CRL-1721), transient transfection with pcDNA3.1+ plasmid, Lipofectamine 2000
Protocol: (§1) To determine whether H547A-induced increase in Vmax was mediated by a phosphorylation-dependent mechanism, kinetic analysis of [^3H]DA uptake was measured in the presence or absence of PKC activator PMA (Tocris, Bristol, UK) or PKC inhibitor BIM (Sigma-Aldrich, St. Louis, MO). The concentrations were chosen based on previous reports. In brief, intact PC12 cells transfected with WT or H547A-hDAT were preincubated with or without PMA or BIM (1 μM, final concentration) for 30 min at 37 °C or room temperature and then incubated with six concentrations of mixed [^3H]DA for 8 min as described above. Nonspecific uptake of each concentration of [^3H]DA (in the presence of 10 μM nomifensine) was subtracted from total uptake to calculate specific DAT-mediated uptake.

H547A-hDAT [2] = biological target: T2, H547A-hDAT (Homo sapiens, UniProt Q01959, H547A); test: Competitive inhibition / modulation of [3H]WIN 35,428 binding in intact transfected PC12 cells; conditions: Zn2+ 100 μM
T2 construct: Synthetic cDNA encoding hDAT subcloned into pcDNA3.1+; expressed in transfected cells; host or cells: PC12 cells (ATCC CRL-1721), transient transfection with pcDNA3.1+ plasmid
T2 sequence (Q01959 whole entry H547A): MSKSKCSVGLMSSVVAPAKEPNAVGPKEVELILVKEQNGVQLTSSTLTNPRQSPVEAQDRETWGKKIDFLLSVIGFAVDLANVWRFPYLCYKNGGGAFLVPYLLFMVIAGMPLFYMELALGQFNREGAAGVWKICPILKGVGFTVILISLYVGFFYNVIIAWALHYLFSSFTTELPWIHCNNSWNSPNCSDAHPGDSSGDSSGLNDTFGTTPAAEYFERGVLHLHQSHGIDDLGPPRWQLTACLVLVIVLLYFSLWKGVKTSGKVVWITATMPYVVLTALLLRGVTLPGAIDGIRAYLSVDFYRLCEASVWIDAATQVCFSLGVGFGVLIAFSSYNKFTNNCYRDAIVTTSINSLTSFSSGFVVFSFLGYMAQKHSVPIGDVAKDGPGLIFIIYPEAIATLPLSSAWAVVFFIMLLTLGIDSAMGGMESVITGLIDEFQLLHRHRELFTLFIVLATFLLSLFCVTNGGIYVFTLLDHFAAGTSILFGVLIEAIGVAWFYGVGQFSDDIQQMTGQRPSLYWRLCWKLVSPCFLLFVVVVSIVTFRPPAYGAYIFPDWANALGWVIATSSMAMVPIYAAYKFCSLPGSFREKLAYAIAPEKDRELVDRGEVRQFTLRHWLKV

H547A-hDAT [3] = biological target: T2, H547A-hDAT; format: cell-based
Protocol: (§2) Cells were lysed in 500 μl of 1% SDS for an hour and radioactivity was measured using a liquid scintillation counter (model Tri-Carb 2900TR; PerkinElmer Life and Analytical Sciences, Waltham, MA). Vmax and Km were determined using Prism 5.0 (GraphPad Software Inc., San Diego, CA).
(§3) Results are presented as mean ± SEM, and n represents the number of independent experiments for each experiment group. Kinetic parameters (Vmax, Km, Bmax, and Kd) were determined from saturation curves by nonlinear regression analysis using a one-site model with variable slope. […] For experiments involving comparisons between unpaired samples, unpaired Student’s t test was used to assess any difference in the kinetic parameters (Vmax, Km, Bmax, Kd or IC50) between WT and mutant; log-transformed values of IC50, Km or Kd were used for the statistical comparisons. Significant differences between samples were analyzed with separate ANOVAs followed by post-hoc tests, as indicated in the results Section of each experiment. All statistical analyses were performed using IBM SPSS Statistics version 20, and differences were considered significant at p < 0.05.

WT hDAT [4] = biological target: T1, WT hDAT; test: Inhibition of [3H]DA uptake in intact transfected PC12 cells; format: cell-based
Protocol: as §2, §3

H547D-hDAT = biological target: T3, H547D-hDAT (Homo sapiens, UniProt Q01959, H547D); test: as above; format: cell-based
T3 construct: Synthetic cDNA encoding hDAT subcloned into pcDNA3.1+; expressed in transfected cells; host or cells: PC12 cells (ATCC CRL-1721), transient transfection with pcDNA3.1+ plasmid
T3 sequence (Q01959 whole entry H547D): as the sequence (Q01959 whole entry H547A) above, with A547D counted along it
Protocol: as §2, §3

WT hDAT [5] = biological target: T1, WT hDAT; test: Competitive inhibition / modulation of [3H]WIN 35,428 binding in intact transfected PC12 cells
H547A-hDAT [6] = biological target: T2, H547A-hDAT; test: Kinetic analysis of [3H]DA uptake in the presence or absence of PMA or BIM; format: cell-based; conditions: 1 μM PMA, 30 min preincubation, 37 °C
Protocol: as §1

T1 sequence (Q01959 whole entry): as the sequence (Q01959 whole entry H547A) above, with A547H counted along it

With `CN(C)CCCn1cc(C2=C(c3c[nH]c4ccccc34)C(=O)NC2=O)c2ccccc21` [BIM, bisindolylmaleimide-I] the “increase in the Vmax of [3H]DA uptake relative to control” value (WT hDAT [1]; 1 μM BIM) was 98%.
For `[Cl-].[Cl-].[Zn+2]` [Zn^2+, ZnCl2], the “increase in [3H]WIN 35,428 binding” value (H547A-hDAT [2]) was 27%, the “decrease in [3H]DA uptake compared to control” value (“decrease in [3H]DA uptake” below) (H547A-hDAT [3]; Zn2+ 10 μM, not significant) was 10% and the “decrease in [3H]DA uptake” value (H547A-hDAT [3]; Zn2+ 100 μM) was 38%. For the same compound, the “decrease in [3H]DA uptake” value (WT hDAT [4]; Zn2+ 10 μM) was 25%, the “decrease in [3H]DA uptake” value (WT hDAT [4]; Zn2+ 100 μM) was 37% and the “decrease in [3H]DA uptake” value (H547D-hDAT; Zn2+ 10 μM) was 53%. For the same compound, the “decrease in [3H]DA uptake” value (H547D-hDAT; Zn2+ 100 μM) was 60%, the “increase in [3H]WIN 35,428 binding” value (WT hDAT [5]; Zn2+ 10 μM) was 80% and the “increase in [3H]WIN 35,428 binding” value (WT hDAT [5]; Zn2+ 100 μM) was 82%.
For `CCCCCCCCCCCCCC(=O)O[C@@H]1[C@@H](C)[C@@]2(O)[C@@H](C=C(CO)C[C@]3(O)C(=O)C(C)=C[C@@H]23)[C@@H]2C(C)(C)[C@]12OC(C)=O` [PMA, phorbol 12-myristate 13-acetate], the “decrease in the Vmax of [3H]DA uptake compared to control” value (WT hDAT [1]; 1 μM PMA, 37 °C) was 40% and the “decrease in the Vmax of [3H]DA uptake compared to control” value (H547A-hDAT [6]) was 60%.
